Test results as given in article PMC11813143, “HBV polymerase recruits the phosphatase PP1 to dephosphorylate HBc-Ser170 to complete encapsidation” (PLOS Pathogens, 2025).
Where no end group is shown, it is not given here.

System: C-S170 Ab
Experiment: ELISA binding of immobilized HBc CTD peptides to C-S170 Ab
Set-up: species or system rabbit
Conditions: Fig 1C; for O.D. Mean: mean of n = 2
Experimental: To quantify the binding specificity of C-S170 Ab with non-phosphorylated HBc-Ser170, a flat-bottomed 96-well plate was coated with 100 ng of various peptides, including the non-phosphorylated and phosphorylated peptides covering Ser150, Ser162 and Ser170, and then the C-S170 Ab was added to the wells. For the competition of various peptides to C-S170 Ab, the 96-well plate was coated with 100 ng of non-phosphorylated HBc-Ser170 peptide and then a preincubated mixture containing 100 ng of peptide and the C-S170 Ab was added to the wells. After incubation with rabbit IgG conjugated with HRP, TMB substrate and a stop solution were added. The absorbance at a wavelength of 450 nm (A450) with a reference wavelength of 650 nm was measured using a microplate reader. GraphPad Prism 5 software was used to generate bar graphs and calculate Kd values, binding percentages, and inhibition percentages.

**Q.** Which results are given for PRRRRSQSPRRRR [Ser170]?
**A.** O.D. Mean ([Ab] 0.0001 ng/mL): 0.008; O.D. ([Ab] 0.0001 ng/mL, replicate 1): 0.008; O.D. ([Ab] 0.0001 ng/mL, replicate 2): 0.008; O.D. Mean ([Ab] 0.001 ng/mL): 0.032; O.D. ([Ab] 0.001 ng/mL, replicate 1): 0.034; O.D. ([Ab] 0.001 ng/mL, replicate 2): 0.03; O.D. Mean ([Ab] 0.01 ng/mL): 0.271; O.D. ([Ab] 0.01 ng/mL, replicate 1): 0.255; O.D. ([Ab] 0.01 ng/mL, replicate 2): 0.288; O.D. Mean ([Ab] 0.1 ng/mL): 1.801; O.D. ([Ab] 0.1 ng/mL, replicate 1): 1.753; O.D. ([Ab] 0.1 ng/mL, replicate 2): 1.85
